# From ChEMBL document CHEMBL5050844 (2019)
# How the values were obtained:
# [1] = target: E3 ubiquitin-protein ligase CBL-B (Homo sapiens, UniProt Q13191); assay: Inhibition of N-terminal Avi-tagged human CBL-B (36 to 427 residues) incubated with 60 nM Src kinase for 1.5 hrs followed by incubation with fluorescently labeled UbcH5B-Ub for 1 hr and measured by TR-FRET assay; format: single protein
# [2] = Induction of anti-CD3/CD28 antibodies-stimulated human T cell activation at 1 uM assessed fold increase in IL-2 secretion measured by ELISA assay; format: functional, T cell line
# [3] = Induction of anti-CD3/CD28 antibodies-stimulated human T cell activation at 0.3 uM assessed fold increase in IL-2 secretion measured by ELISA assay; format: functional, T cell line
# [4] = Induction of anti-CD3 antibodies-stimulated human T cell activation at 1 uM assessed fold increase in IL-2 secretion measured by ELISA assay; format: functional, T cell line; further: reference of the scale not given here
# [5] = Induction of anti-CD3/CD28 antibodies-stimulated human T cell activation at 1 uM assessed fold increase in CD25 expression measured by ELISA assay; format: functional, T cell line
# [6] = Induction of anti-CD3/CD28 antibodies-stimulated human T cell activation at 0.3 uM assessed fold increase in CD25 expression measured by ELISA assay; format: functional, T cell line
# [7] = Induction of anti-CD3 antibodies-stimulated human T cell activation at 1 uM assessed fold increase in CD25 expression measured by ELISA assay; format: functional, T cell line; further: reference of the scale not given here
# E3 ubiquitin-protein ligase CBL-B, sequence (Q13191 whole entry, the tested form may be a part): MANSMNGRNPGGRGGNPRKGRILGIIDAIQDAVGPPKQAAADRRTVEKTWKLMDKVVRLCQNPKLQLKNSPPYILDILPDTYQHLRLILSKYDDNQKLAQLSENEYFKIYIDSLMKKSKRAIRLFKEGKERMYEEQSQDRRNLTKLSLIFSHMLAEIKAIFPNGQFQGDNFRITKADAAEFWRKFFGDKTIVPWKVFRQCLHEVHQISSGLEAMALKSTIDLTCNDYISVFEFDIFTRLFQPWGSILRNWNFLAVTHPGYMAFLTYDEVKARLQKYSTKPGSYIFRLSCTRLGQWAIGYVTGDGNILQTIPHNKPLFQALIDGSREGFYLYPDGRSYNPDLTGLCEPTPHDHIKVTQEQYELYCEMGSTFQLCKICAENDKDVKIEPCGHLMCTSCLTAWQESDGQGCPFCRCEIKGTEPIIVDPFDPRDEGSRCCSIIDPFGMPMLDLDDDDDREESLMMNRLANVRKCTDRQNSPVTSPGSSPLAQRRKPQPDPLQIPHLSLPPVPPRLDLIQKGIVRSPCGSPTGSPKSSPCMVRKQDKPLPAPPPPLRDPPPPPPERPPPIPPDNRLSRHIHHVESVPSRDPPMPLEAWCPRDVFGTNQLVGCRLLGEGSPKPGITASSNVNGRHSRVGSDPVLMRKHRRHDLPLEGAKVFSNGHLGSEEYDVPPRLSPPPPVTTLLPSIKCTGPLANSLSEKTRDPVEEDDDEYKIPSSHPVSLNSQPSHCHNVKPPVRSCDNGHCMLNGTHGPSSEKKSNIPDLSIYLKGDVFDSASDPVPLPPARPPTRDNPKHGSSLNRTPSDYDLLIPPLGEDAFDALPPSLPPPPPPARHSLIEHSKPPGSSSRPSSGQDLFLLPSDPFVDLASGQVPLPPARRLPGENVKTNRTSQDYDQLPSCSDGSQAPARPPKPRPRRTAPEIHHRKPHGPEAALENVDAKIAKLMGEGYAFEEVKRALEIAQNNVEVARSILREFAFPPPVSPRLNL
Structure (SMILES),IC50 [1],fold change (FC) [2],fold change (FC) [3],fold change (FC) [4],fold change (FC) [5],fold change (FC) [6],fold change (FC) [7],fold change (FC) ([5]; 1 µM),fold change (FC) ([6]; 0.3 µM)
CN1C2CCC1CN(c1cc3c(c(C(F)(F)F)c1)CN(c1cccc(C4(Cc5nncn5C)COC4)c1)C3=O)C2,< 100 nM,5,2.51,0.151,1.01,1.01,>=1.001,–,–
COc1cc(C(=O)Nc2cccc(C3(Cc4nncn4C)COC3)c2)nc(C2CC2)n1,< 100 nM,>=7.5,5,0.151,1.31,1.01,>=1.001,–,–
"C[C@H](c1cc2c(c(C(F)(F)F)c1)CN(c1cccc(C3([C@H](F)c4nncn4C)COC3)c1)C2=O)N1CCC2(CC2)C1 (single isomer, unassigned)",< 100 nM,>=7.5,>=7.5,>=0.201,>=1.76,>=1.76,>=1.001,–,–
Cn1cnnc1CC1(c2cccc(N3Cc4c(cc(CN5CCCC5)nc4C4CC4)C3=O)c2)COC1,< 100 nM,2.51,1.01,<=0.05,1.01,1.01,<=0.6,–,–
C[C@@H]1CCN(Cc2cc3c(c(C(F)(F)F)c2)CN(c2cccc(C4(Cc5nncn5C)COC4)c2)C3=O)C[C@H]1F (relative stereo),< 100 nM,>=7.5,>=7.5,>=0.201,1.51,1.31,>=1.001,–,–
CN1CC2CC(C1)N2c1cc2c(c(C(F)(F)F)c1)CN(c1cccc([C@@](C)(F)C(F)(F)c3nncn3C)c1)C2=O,< 100 nM,2.51,1.01,0.051,1.01,1.01,0.801,–,–
Cn1cnnc1[C@H](F)C1(c2cccc(N3Cc4c(cc(CN5[C@H]6CC[C@H]5CC(F)C6)cc4C(F)(F)F)C3=O)c2)COC1 (some centres undefined),< 100 nM,>=7.5,>=7.5,>=0.201,>=1.76,>=1.76,>=1.001,–,–
"CN1CC2CC1CN2c1cc2c(c(C(F)(F)F)c1)CN(c1cccc([C@@](C)(F)C(F)(F)c3nncn3C)c1)C2=O (single isomer, unassigned; 563)",< 100 nM,2.51,1.01,0.051,1.31,1.01,0.801,–,–
Cn1cnnc1CC1(c2cccc(N3Cc4c(cccc4C(F)(F)F)C3=O)c2)CC(F)(F)C1,< 100 nM,5,2.51,>=0.201,1.01,1.01,>=1.001,–,–
Cn1cnnc1CC1(c2cccc(N3Cc4c(cc(N5CCN6CCC[C@@H]6C5)cc4C(F)(F)F)C3=O)c2)COC1,< 100 nM,>=7.5,>=7.5,>=0.201,>=1.76,>=1.76,>=1.001,–,–
Cn1cnnc1CC1(c2cccc(N3Cc4c(cc(C5CCC5)cc4C(F)(F)F)C3=O)c2)COC1,< 100 nM,2.51,2.51,0.101,1.31,1.01,0.801,–,–
Cn1cnnc1C(F)(F)C1(c2cccc(N3Cc4c(cc(CN5CC[C@H](F)C5)cc4C(F)(F)F)C3=O)c2)CC1,< 100 nM,>=7.5,5,>=0.201,1.31,1.01,>=1.001,–,–
Cn1cnnc1CC1(c2cccc(N3Cc4c(cc(CN5CC(F)C5(C)C)cc4C(F)(F)F)C3=O)c2)COC1 (centres undefined),< 100 nM,5,2.51,0.101,1.31,1.31,>=1.001,–,–
C[C@H]1CN(Cc2cc3c(c(C(F)(F)F)c2)CN(c2cccc(C4(Cc5nncn5C)COC4)c2)C3=O)CCO1,< 100 nM,>=7.5,5,>=0.201,1.31,1.31,0.601,–,–
Cn1cnnc1CC1(c2cccc(N3Cc4c(cc(C(O)c5ccccc5)cc4C(F)(F)F)C3=O)c2)COC1 (centres undefined),< 100 nM,>=7.5,5,>=0.201,1.31,1.31,>=1.001,–,–
Cn1cnnc1CC1(c2cccc(N3Cc4c(cc(N5CCNC6(CC6)C5)cc4C(F)(F)F)C3=O)c2)COC1,< 100 nM,>=7.5,>=7.5,0.101,1.31,1.31,>=1.001,–,–
Cn1cnnc1[C@H](F)C1(c2cccc(N3Cc4c(cc(CN5C6CCCC5CC6)cc4C(F)(F)F)C3=O)c2)COC1 (stereo in doubt; 671b),< 100 nM,>=7.5,>=7.5,>=0.201,–,–,>=1.001,>=1.76,>=1.76
